ChEMBL document CHEMBL1134363 (J Med Chem, 2001)

What was measured:
[1] = molecular target: Norepinephrine transporter (Rattus norvegicus, UniProt Q9WTR4); assay: In vitro binding affinity was determined against NA (noradrenaline) reuptake site of rat in presence of [3H]nisoxetine radioligand
[2] = molecular target: T1, Adrenergic receptor alpha-1 (Rattus norvegicus, UniProt P15823+P23944+P43140); assay: In vitro binding affinity against alpha-1 adrenergic receptor of rat in presence of [3H]-prazosin radioligand; format: protein assay
T1 sequence (P15823 whole entry): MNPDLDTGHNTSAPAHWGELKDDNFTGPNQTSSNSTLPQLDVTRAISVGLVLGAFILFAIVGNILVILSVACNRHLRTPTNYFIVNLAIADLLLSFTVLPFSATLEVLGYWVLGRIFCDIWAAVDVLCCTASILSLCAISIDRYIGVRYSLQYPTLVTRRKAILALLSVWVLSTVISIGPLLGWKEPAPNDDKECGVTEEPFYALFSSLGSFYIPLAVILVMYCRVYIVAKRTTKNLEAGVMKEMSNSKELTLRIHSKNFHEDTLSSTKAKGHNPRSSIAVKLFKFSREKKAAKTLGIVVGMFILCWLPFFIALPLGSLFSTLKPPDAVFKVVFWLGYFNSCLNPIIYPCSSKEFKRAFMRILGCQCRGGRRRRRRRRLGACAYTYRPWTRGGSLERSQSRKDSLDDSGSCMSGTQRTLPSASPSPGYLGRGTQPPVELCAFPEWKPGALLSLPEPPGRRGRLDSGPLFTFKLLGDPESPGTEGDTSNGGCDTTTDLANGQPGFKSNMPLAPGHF
T1 sequence (P23944 whole entry): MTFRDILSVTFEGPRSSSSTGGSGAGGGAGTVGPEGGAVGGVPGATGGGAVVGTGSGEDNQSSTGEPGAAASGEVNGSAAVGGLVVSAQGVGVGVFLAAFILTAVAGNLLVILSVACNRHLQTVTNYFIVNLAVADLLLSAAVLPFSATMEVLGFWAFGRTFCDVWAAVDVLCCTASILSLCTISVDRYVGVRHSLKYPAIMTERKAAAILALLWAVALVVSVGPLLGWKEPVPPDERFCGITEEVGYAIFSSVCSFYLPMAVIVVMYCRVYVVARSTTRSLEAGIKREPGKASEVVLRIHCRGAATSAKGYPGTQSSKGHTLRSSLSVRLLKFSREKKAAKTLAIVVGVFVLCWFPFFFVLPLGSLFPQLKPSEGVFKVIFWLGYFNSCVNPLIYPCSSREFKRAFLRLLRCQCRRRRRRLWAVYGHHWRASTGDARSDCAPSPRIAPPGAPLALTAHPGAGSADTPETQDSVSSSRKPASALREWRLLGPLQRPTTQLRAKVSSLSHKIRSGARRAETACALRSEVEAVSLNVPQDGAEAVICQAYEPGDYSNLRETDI
T1 sequence (P43140 whole entry): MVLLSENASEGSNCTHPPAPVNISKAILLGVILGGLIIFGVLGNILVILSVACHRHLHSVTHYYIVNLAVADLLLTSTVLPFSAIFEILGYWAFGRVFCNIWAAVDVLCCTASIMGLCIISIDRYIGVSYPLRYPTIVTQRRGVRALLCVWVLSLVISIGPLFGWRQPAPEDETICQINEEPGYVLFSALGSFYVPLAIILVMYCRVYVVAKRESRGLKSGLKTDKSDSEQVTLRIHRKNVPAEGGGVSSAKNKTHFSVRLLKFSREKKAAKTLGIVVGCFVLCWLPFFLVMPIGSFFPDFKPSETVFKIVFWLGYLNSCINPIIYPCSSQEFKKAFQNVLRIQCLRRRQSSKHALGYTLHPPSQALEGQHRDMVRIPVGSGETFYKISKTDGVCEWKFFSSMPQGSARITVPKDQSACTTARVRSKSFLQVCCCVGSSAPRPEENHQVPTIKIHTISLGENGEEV

[3] = molecular target: T2, Adrenergic receptor alpha-2 (Rattus norvegicus, UniProt P22086+P19328+P22909); assay: In vitro binding affinity against alpha-2 adrenergic receptor of rat in presence of [3H]-RX 821002 radioligand; format: protein assay
T2 sequence (P22086 whole entry): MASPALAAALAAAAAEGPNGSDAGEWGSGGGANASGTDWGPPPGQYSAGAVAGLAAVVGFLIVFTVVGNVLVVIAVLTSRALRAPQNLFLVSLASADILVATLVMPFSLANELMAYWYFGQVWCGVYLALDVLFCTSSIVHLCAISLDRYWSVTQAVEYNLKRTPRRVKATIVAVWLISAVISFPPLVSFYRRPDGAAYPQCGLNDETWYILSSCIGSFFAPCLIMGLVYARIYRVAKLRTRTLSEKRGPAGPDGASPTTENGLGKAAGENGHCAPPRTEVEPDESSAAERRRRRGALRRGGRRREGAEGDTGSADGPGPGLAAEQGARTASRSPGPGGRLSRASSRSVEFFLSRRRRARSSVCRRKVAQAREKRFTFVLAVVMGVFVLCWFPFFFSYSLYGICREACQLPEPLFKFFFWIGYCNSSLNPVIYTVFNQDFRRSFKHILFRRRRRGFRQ
T2 sequence (P19328 whole entry): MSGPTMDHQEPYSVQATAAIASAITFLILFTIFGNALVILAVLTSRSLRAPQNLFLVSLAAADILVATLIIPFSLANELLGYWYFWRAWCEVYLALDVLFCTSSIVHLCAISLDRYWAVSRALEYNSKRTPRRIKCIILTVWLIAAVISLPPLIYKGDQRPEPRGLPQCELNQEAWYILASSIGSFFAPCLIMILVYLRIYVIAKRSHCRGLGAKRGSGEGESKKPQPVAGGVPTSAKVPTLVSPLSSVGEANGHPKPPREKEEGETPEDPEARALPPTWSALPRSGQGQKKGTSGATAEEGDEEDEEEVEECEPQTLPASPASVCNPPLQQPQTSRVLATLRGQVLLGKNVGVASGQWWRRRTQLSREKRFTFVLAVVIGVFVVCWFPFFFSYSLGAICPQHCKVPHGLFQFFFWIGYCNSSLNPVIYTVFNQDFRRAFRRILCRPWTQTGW
T2 sequence (P22909 whole entry): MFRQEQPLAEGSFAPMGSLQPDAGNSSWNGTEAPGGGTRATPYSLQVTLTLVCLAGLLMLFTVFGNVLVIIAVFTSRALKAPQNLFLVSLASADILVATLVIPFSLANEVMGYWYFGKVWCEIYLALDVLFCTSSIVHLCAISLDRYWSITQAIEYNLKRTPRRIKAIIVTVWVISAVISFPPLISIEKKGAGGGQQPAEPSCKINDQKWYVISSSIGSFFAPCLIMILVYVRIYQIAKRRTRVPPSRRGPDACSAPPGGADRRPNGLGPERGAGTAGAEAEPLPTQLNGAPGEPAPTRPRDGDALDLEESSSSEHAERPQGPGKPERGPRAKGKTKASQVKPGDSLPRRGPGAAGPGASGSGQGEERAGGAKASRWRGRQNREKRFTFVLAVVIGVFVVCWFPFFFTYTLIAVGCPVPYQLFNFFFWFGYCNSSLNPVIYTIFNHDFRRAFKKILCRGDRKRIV

[4] = molecular target: Sodium-dependent serotonin transporter (Rattus norvegicus, UniProt P31652); assay: In vitro binding affinity was determined against serotonin reuptake site of rat in presence of [3H]paroxetine radioligand
Sequence of Sodium-dependent serotonin transporter (P31652 whole entry): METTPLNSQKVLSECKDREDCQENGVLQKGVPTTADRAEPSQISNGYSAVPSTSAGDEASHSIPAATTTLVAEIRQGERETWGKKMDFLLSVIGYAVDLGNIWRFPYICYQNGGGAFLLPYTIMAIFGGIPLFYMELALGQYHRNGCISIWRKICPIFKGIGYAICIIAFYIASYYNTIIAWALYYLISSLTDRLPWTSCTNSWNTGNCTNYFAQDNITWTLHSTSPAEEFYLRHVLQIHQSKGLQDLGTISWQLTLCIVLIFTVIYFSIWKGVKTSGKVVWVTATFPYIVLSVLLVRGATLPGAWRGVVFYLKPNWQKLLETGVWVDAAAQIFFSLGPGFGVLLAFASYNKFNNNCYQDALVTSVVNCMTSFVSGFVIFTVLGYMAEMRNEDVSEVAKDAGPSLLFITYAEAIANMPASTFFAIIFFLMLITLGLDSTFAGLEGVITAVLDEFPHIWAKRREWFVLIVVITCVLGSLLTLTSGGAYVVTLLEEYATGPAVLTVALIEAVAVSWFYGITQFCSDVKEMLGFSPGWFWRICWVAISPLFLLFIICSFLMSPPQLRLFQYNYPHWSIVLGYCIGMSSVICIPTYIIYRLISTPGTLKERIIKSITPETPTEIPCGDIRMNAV

Sequence of Norepinephrine transporter (Q9WTR4 whole entry): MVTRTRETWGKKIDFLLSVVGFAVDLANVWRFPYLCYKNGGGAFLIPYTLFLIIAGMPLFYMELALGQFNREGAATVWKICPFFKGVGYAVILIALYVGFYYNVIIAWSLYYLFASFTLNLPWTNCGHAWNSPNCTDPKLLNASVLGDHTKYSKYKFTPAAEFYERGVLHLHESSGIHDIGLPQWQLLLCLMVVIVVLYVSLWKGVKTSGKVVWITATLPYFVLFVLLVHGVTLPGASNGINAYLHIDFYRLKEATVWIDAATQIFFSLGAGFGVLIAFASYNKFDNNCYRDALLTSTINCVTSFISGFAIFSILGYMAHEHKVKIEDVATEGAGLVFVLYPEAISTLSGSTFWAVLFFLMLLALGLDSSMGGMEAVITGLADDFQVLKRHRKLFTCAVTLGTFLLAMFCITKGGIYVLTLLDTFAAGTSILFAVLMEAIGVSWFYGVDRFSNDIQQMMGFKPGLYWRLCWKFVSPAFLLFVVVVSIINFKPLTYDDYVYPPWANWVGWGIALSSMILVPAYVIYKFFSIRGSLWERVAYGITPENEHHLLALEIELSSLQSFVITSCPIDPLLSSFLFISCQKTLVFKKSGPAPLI

SMILES	Ki [1] [nM]	Log Ki [2]	Log Ki [3]	Ki [4] [nM]
C[C@@]1(C[C@@H]2CN=CN2)CCc2ccccc2C1	200	-6	-7.1	10
C1=NC[C@@]2(CC[C@@H]3Cc4ccccc4C[C@H]3C2)N1 (relative stereo)	> 1000	-6.2	-6.1	25.1
NC1=NCC(CC2=Cc3c(Cl)cccc3CC2)O1 (stereo not drawn)	> 1000	-6.5	-6.2	
Fc1ccc2c(c1)CC(CC1CN=CN1)C2 (stereo not drawn)	316	-6.2	-8.1	
Cc1ccc2c(c1)CCC(CC1CN=CN1)=C2 (stereo not drawn)	> 1000		-6.4	15.8
C1=NC[C@@H](C2CC23Cc2ccccc2C3)N1 (stereo partly drawn)	316	-5.2	-7.1	398
Cc1cccc2c1C=C(CC1CN=CN1)CC2 (stereo not drawn)	1000	-6.2	-6.8	12.6
C1=NCC2(CC3(Cc4ccccc4C3)C2)N1	> 10000	-5.3	-6.2	6310
Cc1ccc2c(c1)C=C(CC1CN=CN1)CC2 (stereo not drawn)	1000	-6.4	-6.8	63.1
C[C@@]1(C[C@H]2CN=CN2)CCc2ccccc2C1	63.1	-5.7	-6.6	31.6
C1=C(CC2=NCCN2)CCc2ccccc21 [NAPAMEZOLE]	> 1000	-7	-8.5	200
Fc1ccc2oc(CC3CN=CN3)cc2c1 (stereo not drawn)	794		-7	158
COc1ccc2c(c1)C=C(CC1CN=CN1)CC2 (stereo not drawn)	> 1000	-5.6	-6.3	200
C1=NC[C@@H](C[C@]23CCc4ccccc4C2C3)N1 (stereo partly drawn)	316	-5.9	-7.2	20
Fc1cccc2c1CC(CC1CN=CN1)C2 (stereo not drawn)	100	-6.8	-8.9	100
C1=NCC(CC2=Cc3ccccc3OC2)N1 (stereo not drawn)	63.1	-5.8	-6.9	251
Cc1ccc2c(c1)CCC(CC1CN=C(N)O1)=C2 (stereo not drawn)	> 1000		-5.8	79.4
FC(F)(F)c1ccc2c(c1)C=C(CC1CN=CN1)CC2 (stereo not drawn)	> 10000	-5.9	-6.4	158
C1=NC[C@@H]([C@H]2[C@@H]3CCc4ccccc4[C@@H]32)N1	251		-6.4	> 3160

SMILES	Ki [1] [nM]	Log Ki [2]	Log Ki [3]	Ki [4] [nM]
C1=NCC([C@@H]2[C@@H]3Cc4ccccc4C[C@@H]32)N1 (stereo partly drawn)	50.1	-6.1	-5.5	> 1000
Cc1cc2c(cc1C)CC(CC1CN=CN1)C2 (stereo not drawn)	25.1	-6.7	-7.6	20
CC1(CC2=Cc3ccccc3CC2)CN=CN1 (stereo not drawn)	316	-5.9	-6.1	63.1
NC1=NCC(CC2=Cc3ccccc3CC2)O1 (stereo not drawn)	1000		-6	63.1
Fc1cc2c(cc1F)CC(CC1CN=CN1)C2 (stereo not drawn)	100	-6.1	-7.3	12.6
C1=NCC(CC2COc3ccccc3O2)N1 (stereo not drawn)	1000	-6.2	-7.5	1260
COc1cccc2c1C=C(CC1CN=CN1)CC2 (stereo not drawn)	1000	-6.8	-7.6	
C1=NCC(CC2=Cc3ccccc3C2)N1 (stereo not drawn)	31.6	-5.9	-7.8	79.4
C1=NCC(CC2CCc3ccccc3C2)N1 (stereo not drawn)	100	-6.1	-7.8	10
C1=C(Cc2c[nH]cn2)CCc2ccccc21	794	-7.3	-8.9	631
CC1(C)CC(CC2CN=CN2)=Cc2ccccc21 (stereo not drawn)	39.8	-6.1	-6	> 10000
C1=NCC(Cc2cc3cc(-c4ccccc4)ccc3o2)N1 (stereo not drawn)	158	< -5.5	< -5	> 10000
C1=NC[C@H](C2C[C@@]23CCc2ccccc2C3)N1 (stereo partly drawn)	398	-6	-6.6	25.1
Cc1ccc2c(c1)C=C(CC1CN=C(N)O1)CC2 (stereo not drawn)	> 1000	-6.6	-5.8	251
Clc1cccc2c1CC(CC1CN=CN1)CC2 (stereo not drawn)	100	-6.5	-8.8	5.01
C1=NC[C@H](C2CC23Cc2ccccc2C3)N1 (stereo partly drawn)	31.6	-6.9	-9.1	50.1
NC1=NC(CC2=Cc3ccccc3CC2)CO1 (stereo not drawn)	501		-7.3	158
C1=NCC([C@H]2[C@@H]3Cc4ccccc4C[C@@H]32)N1 (stereo partly drawn)		-6.3	-6.3	631
